Experimental data: patent publication US7655624B2, “Peptide and peptide mimetic conjugates with integrin-inhibitor properties” (Biomet Deutschland GmbH, priority 2000, dated 2010)

Tested on: mouse MC3T3 H1 osteoblast cultures
Test: Cell adhesion test on RGD-peptide-coated material surfaces
Assay type: cell-based
Conditions: adhered cells/inoculated cells x 100; 50 000 cells/cm^2 inoculated on peptide-coated material surface; serum-free medium, 37° C./95% atmospheric humidity, one hour
Experimental: The shaped articles are transferred into 48 wells (Costar, “non-tissue culture treated” Art. No. 3574). To attach the bioactive, cell adhesion-mediating molecules B (where B can be a cyclopeptide, peptide mimetic or linear peptide according to claim 2) to the prepared shaped articles, molecule B-containing stock solutions (“B solutions”) are prepared in a final concentration of 1 mM in one of the aqueous buffers Tris-HCl (10 mM, pH 8.7), Tris-HClO4 (10 mM, pH 8.7) or PBS, pH 7.4. Concentration series with the “B solutions” final concentrations of in each case 1 nm, 10 nm, 100 nm, 1 μm, 10 μm and 100 μm are then prepared by dilution with PBS, pH 7.4. The shaped articles are each covered with 250 μl of the respective B solution and then incubated at room temperature for 18-24 hours. To remove unbound B molecules, the samples are washed three times with PBS, pH 7.4, and stored in PBS, pH 7.4, at 4° C. overnight. […]
The adhesion of mouse MC3T3 H1 osteoblast cultures in vitro to RGD-peptide-coated material surfaces was investigated. In this test, 50 000 cells/cm^2 were inoculated and, after incubation in serum-free medium at 37° C./95% atmospheric humidity for one hour, the proportion of adhered cells was determined. […]

Row | Substance | cell adhesion rate
1 | Cyclo-(Arg-Gly-Asp-DPhe-Lys (N^εH[CO—(CH2)5—NH]2-Lys-[Lys-(CO—CH2—CH2—PO3H2)2]2)) [Example 4] | 75%
2 | Cyclo-(Arg-Gly-Asp-DPhe-Lys (N^εH—[CO—(CH2)5—NH]3-Lys-[Lys-(CO—CH2—CH2—PO3H2)2]2) [Example 5] | 62%
